Where two headings read alike, the source gives them in different places.

For assay [1], the target named is human cannabinoid CB2 receptor (Homo sapiens, UniProt P34972). The experiment in a line: biochemical. Type of assay: binding. How it is done:
3. In Vitro Binding Affinity of the Test Compounds to CB2 Receptors
After incubation of a freshly prepared cell membrane preparation with the [^3H]-ligand, with or without the addition of the compounds described herein, separation of bound and free ligand is performed by filtration over glass-fiber filters. Radioactivity on the filter is measured by liquid scintillation counting.

The next assay concerns the target T1, hamster SUR1 (Cricetus cricetus, UniProt Q09427).
T1 construct: expressed in transfected cells; host or cells: COS-1 cells, transient (pcDNA vector)
Kind of assay: In vitro binding affinity to rodent KATP channels: SUR1 ([3H]glibenclamide displacement, COS cell membranes). Conditions: hamster SUR1 in COS cell membranes; for Ki: read-out: Affinity to SUR 1 (converted). As for the experimental part:
1. In Vitro Binding Affinity of the Test Compounds to Rodent KATP Channels
Competitive binding experiments were performed to characterize the affinity of the test compounds for the binding sites for sulfonylureas and KATP channel openers (KCOS) on hamster SUR1. To assess the affinity for the sulfonylurea site, membranes from COS-cells transiently expressing hamster SUR1 were incubated in the presence of [^3H]glibenclamide with increasing concentrations of test compounds. […] For each test compound four displacement curves were measured (+/−MgATP from the human and hamster isoform). Per curve 9-15 distinct concentrations were tested covering the relevant range. All measurements were repeated at least 5 times in independent experiments.
(§1) [^3H]glibenclamide (specific activity 51 Ci mmol^−1) was obtained from NEN (Dreieich, Germany). Where needed, stock solutions were prepared in dimethylsulfoxide with a final solvent concentration in the media below 1%.
(§2) SUR- or Kir6.x isoforms were used either subcloned in the pcDNA (hamster SUR1, mouse Kir6.2) or pCMV vector (rat SUR2A, SUR2B).
(§3) For transfection, the cells were incubated 4 hours in a Tris-buffered salt solution containing DNA (5-10 μg/ml) plus DEAE-dextran (1 mg/ml), 2 min in HEPES-buffered salt solution plus dimethylsulfoxide (10%) and 4 hours in DMEM-HG plus chloroquine (100 μM). Cells were then returned to DMEM-HG plus 10% FCS. […] For binding experiments, resuspended membranes (final protein concentration 5-50 μg/ml) were incubated in “Tris-buffer” (50 mM, pH 7.4) containing either [^3H]glibenclamide (final concentration 0.3 nM or 3 nM and nonspecific binding defined by 100 nM or 1 μM glibenclamide for SUR1 or SUR2Y1205S-isoforms, respectively) or [^3H]P1075 (final concentration 3 nM, nonspecific binding defined by 100 μM pinacidil) and increasing concentrations of the test compounds. The free Mg^2+ concentration were kept close to 0.7 mM. […] Incubations were carried out for 1 h at room temperature and were terminated by rapid filtration through Whatman GF/B filters.
(§4) The inhibition constant (Ki value) of the test substances was calculated from the respective IC50 value, and was stated as the negative logarithmic value thereof (pKi).

The next assay deals with rat SUR2A (Rattus norvegicus, UniProt Q63563). Kind of assay: In vitro binding affinity to rodent KATP channels: SUR2A ([3H]P1075 / [3H]glibenclamide displacement, COS cell membranes). How it is done: Therefore, two strategies can be used to detect binding to the sulfonylurea site on SUR2A.
Membranes from COS-cells transiently expressing rat SUR2A were incubated in the presence of the radioligands with increasing concentrations of test compounds as described above. […] For each test compound four displacement curves were measured (displacement of [^3H]P1075 from the rat isoform of the wild type receptor and displacement of [^3H]glibenclamide from the rat isoform of SUR2AY1205S). Per curve 9-15 distinct concentrations were tested covering the relevant range. All measurements were repeated at least 5 times in independent experiments.
as §1, §2, §3, §4

[2] abbreviates: cloned human CB2 receptor expressed in CHO cells, read-out: Affinity to CB2 (converted).
Where [3] appears, read: rat SUR2A in COS cell membranes.

T1 sequence (Q09427 whole entry): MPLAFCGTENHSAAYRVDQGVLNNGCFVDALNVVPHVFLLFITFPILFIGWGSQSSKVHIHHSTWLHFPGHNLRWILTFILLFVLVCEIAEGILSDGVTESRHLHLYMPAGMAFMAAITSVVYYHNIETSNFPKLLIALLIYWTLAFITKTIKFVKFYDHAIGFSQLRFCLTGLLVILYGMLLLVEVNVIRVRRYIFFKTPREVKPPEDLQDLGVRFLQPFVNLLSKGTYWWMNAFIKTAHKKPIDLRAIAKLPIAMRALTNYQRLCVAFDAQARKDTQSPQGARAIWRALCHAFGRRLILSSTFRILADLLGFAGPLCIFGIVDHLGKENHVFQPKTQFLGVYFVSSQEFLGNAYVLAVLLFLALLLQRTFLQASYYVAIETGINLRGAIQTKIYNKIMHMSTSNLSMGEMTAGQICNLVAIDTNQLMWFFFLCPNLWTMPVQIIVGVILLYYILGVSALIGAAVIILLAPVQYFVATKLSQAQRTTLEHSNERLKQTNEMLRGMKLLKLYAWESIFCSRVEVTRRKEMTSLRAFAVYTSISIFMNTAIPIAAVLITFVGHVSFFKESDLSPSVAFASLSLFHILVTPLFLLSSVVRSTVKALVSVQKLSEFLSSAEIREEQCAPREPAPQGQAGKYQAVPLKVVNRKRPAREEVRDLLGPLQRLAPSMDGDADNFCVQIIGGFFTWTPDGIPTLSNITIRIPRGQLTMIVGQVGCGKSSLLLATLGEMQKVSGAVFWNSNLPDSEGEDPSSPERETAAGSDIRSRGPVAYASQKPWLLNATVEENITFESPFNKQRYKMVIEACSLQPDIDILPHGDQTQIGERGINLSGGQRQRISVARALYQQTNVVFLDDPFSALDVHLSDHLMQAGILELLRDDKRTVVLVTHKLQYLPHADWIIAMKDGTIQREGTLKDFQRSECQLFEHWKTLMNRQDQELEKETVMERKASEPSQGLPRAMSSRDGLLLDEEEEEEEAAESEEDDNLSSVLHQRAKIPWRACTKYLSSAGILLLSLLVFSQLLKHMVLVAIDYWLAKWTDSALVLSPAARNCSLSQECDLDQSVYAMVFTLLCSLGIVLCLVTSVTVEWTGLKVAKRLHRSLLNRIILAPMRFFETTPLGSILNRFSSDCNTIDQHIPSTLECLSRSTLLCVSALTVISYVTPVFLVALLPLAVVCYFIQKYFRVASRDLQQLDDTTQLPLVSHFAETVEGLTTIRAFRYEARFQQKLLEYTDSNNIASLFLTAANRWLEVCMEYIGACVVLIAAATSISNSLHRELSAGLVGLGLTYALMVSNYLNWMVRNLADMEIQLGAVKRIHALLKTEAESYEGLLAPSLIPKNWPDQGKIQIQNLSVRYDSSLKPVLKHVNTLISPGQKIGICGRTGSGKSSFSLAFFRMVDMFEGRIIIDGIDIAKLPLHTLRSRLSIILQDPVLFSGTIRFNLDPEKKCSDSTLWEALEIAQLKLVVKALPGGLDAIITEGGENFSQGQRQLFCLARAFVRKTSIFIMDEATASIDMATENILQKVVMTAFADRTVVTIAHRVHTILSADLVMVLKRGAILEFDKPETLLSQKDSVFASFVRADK
Sequence of human cannabinoid CB2 receptor (P34972 whole entry): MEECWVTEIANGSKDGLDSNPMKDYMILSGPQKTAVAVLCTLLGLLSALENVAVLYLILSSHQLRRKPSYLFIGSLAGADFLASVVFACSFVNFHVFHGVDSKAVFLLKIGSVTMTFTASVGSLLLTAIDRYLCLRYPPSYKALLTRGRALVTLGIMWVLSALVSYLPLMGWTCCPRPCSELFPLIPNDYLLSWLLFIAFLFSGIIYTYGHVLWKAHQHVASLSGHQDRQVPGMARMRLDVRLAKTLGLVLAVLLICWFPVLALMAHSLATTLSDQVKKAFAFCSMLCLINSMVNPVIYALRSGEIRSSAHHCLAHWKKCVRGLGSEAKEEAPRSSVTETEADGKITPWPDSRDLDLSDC
Sequence of rat SUR2A (Q63563 whole entry, canonical isoform): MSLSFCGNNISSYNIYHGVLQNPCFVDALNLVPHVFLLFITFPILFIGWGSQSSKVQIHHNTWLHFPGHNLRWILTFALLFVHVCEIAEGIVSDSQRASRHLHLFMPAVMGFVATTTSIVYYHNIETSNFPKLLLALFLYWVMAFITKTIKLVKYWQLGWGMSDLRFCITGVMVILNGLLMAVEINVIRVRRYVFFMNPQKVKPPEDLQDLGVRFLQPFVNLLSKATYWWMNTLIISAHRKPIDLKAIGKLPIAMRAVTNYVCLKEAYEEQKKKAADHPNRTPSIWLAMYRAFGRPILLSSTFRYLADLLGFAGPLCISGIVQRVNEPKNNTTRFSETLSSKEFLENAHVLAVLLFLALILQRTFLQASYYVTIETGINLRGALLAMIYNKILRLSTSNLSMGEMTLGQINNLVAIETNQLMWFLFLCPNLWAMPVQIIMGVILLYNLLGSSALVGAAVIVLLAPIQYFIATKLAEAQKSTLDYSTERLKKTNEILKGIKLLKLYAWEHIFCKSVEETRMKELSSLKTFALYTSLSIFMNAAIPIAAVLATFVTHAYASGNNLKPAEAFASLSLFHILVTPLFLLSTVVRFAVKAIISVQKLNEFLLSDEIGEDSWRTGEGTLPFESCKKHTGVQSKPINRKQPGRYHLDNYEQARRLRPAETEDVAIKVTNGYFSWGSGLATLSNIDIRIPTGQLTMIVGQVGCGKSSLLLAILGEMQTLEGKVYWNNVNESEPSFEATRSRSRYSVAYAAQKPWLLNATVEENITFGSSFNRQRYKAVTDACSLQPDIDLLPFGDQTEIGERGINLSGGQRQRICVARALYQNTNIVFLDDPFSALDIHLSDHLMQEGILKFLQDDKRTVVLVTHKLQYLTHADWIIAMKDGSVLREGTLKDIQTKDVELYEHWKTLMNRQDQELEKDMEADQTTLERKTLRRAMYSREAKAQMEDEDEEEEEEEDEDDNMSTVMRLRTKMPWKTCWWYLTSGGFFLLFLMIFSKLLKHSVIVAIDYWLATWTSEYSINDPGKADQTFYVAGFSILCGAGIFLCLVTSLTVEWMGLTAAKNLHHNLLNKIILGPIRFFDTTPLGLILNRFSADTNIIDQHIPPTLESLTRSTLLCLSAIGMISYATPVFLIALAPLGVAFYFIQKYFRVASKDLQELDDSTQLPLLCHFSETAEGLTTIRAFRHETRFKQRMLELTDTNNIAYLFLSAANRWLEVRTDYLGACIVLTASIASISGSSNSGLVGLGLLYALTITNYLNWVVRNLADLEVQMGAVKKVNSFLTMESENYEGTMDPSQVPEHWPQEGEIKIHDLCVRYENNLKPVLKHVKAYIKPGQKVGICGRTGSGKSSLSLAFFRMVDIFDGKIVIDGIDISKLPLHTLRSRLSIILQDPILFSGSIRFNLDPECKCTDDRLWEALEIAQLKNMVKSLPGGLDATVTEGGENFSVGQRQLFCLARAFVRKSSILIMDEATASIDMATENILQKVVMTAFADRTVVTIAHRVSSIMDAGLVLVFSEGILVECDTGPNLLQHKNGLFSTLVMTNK

Regarding `CCc1c(C(=O)NN2CCCCC2)nc(-c2ncccc2C)n1-c1ccc(Cl)cc1` [1-(4-Chloro-phenyl)-5-ethyl-2-(3-methyl-pyridin-2-yl)-1H-imidazole-4-carboxylic acid piperidin-1-ylamide], the Ki in assay [1] (setting [2]) was 0.251 µM; at hamster SUR1, 100 µM. In addition, the pKi (commonly the Ki on a negative log10 scale, so that one unit is a factor of ten) on rat SUR2A stood at 4.8.
With `CCc1c(C(=O)NN2CCCCC2)nn(-c2ccc(Cl)cc2Cl)c1-c1ccc(Br)cc1` [SR-147778, 5-(4-Bromo-phenyl)-1-(2,4-dichloro-phenyl)-4-ethyl-1H-pyrazole-3-carboxylic acid piperidin-1-ylamide, reference compound], the Ki was 1.26 µM in assay [1] (setting [2]) and 3.16 µM at hamster SUR1.
As for `CSc1c(C(=O)NC2CCCCC2)nc(-c2ccc(Cl)cc2Cl)n1-c1ccc(Cl)cc1` [1-(4-Chloro-phenyl)-2-(2,4-dichloro-phenyl)-5-methylsulfanyl-1H-imidazole-4-carboxylic acid cyclohexylamide], in assay [1], the “Affinity to CB2” value is 6.6. For the same molecule, on hamster SUR1, the Ki is 0.501 µM. The pKi at rat SUR2A (setting [3]) was 5.8.
For the molecule `Cn1c(C(=O)NN2CCCCC2)nc(-c2cc(Cl)ccc2Cl)c1-c1ccc(Cl)cc1` [5-(4-Chloro-phenyl)-4-(2,5-dichloro-phenyl)-1-methyl 1H-imidazole-2-carboxylic acid piperidin-1-ylamide], the Ki in assay [1] (setting [2]) was 0.398 µM; on hamster SUR1 it was 25.1 µM. The molecule also returned a negative logarithm of the Ki (pKi) at rat SUR2A of 5.0.
On to `CCCCC/C=C\C/C=C\C/C=C\C/C=C\CCCCOC(CO)CO` [Noladineether, reference compound], for which the Ki in assay [1] is 0.251 µM; on hamster SUR1, 3.98 µM.
Turning to `CN1CCC(CNC(=NS(=O)(=O)c2ccc(Cl)cc2)N2CC(c3ccccc3)C(c3ccc(Cl)cc3)=N2)C1` (stereo not shown) [4-Chloro-N-{[3-(4-chloro-phenyl)-4-phenyl-4,5-dihydro-pyrazol-1-yl]-[(1-methyl-pyrrolidin-3-ylmethyl)-amino]-methylene]-benzenesulfonamide], the Ki (in assay [1] (setting [2]); on hamster SUR1) was 1 µM in each case. The molecule also showed a pKi at rat SUR2A of 4.8.
On to `CCCCC/C=C\C/C=C\C/C=C\C/C=C\CCCC(=O)OC(CO)CO` [2-AG, Icosa-5,8,11,14-tetraenoic acid 2-hydroxy-1-hydroxymethyl-ethyl ester, reference compound], for which the Ki was 3.98 µM in assay [1] (setting [2]) and 2.51 µM on hamster SUR1.
Consider `Cc1c(C(=O)NN2CCCCCC2)nc(-c2ccc(Cl)cc2Cl)n1-c1ccc(Cl)cc1` [1-(4-Chloro-phenyl)-2-(2,4-dichloro-phenyl)-5-methyl-1H-imidazole-4-carboxylic acid azepan-1-ylamide], for which the Ki in assay [1] (setting [2]) was 0.0251 µM; at hamster SUR1 it was 6.31 µM. The pKi at rat SUR2A worked out at 5.7.
Regarding `O=S(=O)(N=C(NCCF)N1CC(c2ccccc2)C(c2ccc(Cl)cc2)=N1)c1ccc(Cl)cc1` (stereo not shown) [drawing 46], the “Affinity to SUR 1” value on hamster SUR1 stood at 4.6. Besides, the pKi at rat SUR2A stood at 5.0.
Regarding `CCC1CN=C(N2CC(c3ccccc3)C(c3ccc(Cl)cc3)=N2)O1` (stereo not shown) [2-[3-(4-Chloro-phenyl)-4-phenyl-4,5-dihydro-pyrazol-1-yl]-5-ethyl-4,5-dihydro-oxazole], the Ki at hamster SUR1 is 3.16 µM. The molecule also registered a pKi on rat SUR2A of 4.4.
The corresponding values for `O=C(NN1CCCCC1)c1cn(-c2ccc(C(F)(F)F)cc2)c(-c2ccc(Cl)cc2Cl)n1` [2-(2,4-Dichloro-phenyl)-1-(4-trifluoromethyl-phenyl)-1H-imidazole-4-carboxylic acid piperidin-1-ylamide] are 2.51 µM and 5.3.
Taken in the same sequence, the figures for `O=C(NN1CCCCC1)c1cn(-c2ccc(C(F)(F)F)cc2)c(-c2ccccc2Cl)n1` [2-(2-Chloro-phenyl)-1-(4-trifluoromethyl-phenyl)-1H-imidazole-4-carboxylic acid piperidin-1-ylamide] were 1 µM and 5.7.
Regarding `CCSc1c(C(=O)NN2CCCCC2)nc(-c2ccc(Cl)cc2Cl)n1-c1ccc(Cl)cc1` [1-(4-Chloro-phenyl)-2-(2,4-dichloro-phenyl)-5-ethylsulfanyl-1H-imidazole-4-carboxylic acid piperidin-1-ylamide], the Ki on hamster SUR1 was 7.94 µM. For the same molecule, the pKi on rat SUR2A is 5.3.
On to `CCN(CC)S(=O)(=O)N=C(SC)N1CC(c2ccccc2)C(c2ccc(Cl)cc2)=N1` (stereo not shown) [N,N-Diethylamino-1-sulfonic acid [3-(4-chloro-phenyl)-4-phenyl-4,5-dihydro-pyrazol-1-yl]-methylsulfanyl-methyleneamide], for which the Ki on hamster SUR1 is 100 µM. The molecule also had a negative-log Ki (pKi) on rat SUR2A of 4.7.
As to `O=S(=O)(N=C(NCCCCN1CCCC1)N1CC(c2ccccc2)C(c2ccc(Cl)cc2)=N1)c1ccc(Cl)cc1` (stereo not shown) [4-Chloro-N-[[3-(4-chloro-phenyl)-4-phenyl-4,5-dihydro-pyrazol-1-yl]-(4-pyrrolidin-1-yl-butylamino)-methylene]-benzenesulfonamide], on hamster SUR1, the Ki was 50.1 µM. The same molecule came in with a pKi on rat SUR2A of 5.4.
For the molecule `Cn1c(C(=O)NC2CCCCC2)nc(-c2ccc(Cl)cc2)c1-c1ccc(Cl)cc1Cl` [4-(4-Chloro-phenyl)-5-(2,4-dichloro-phenyl)-1-methyl-1H-imidazole-2-carboxylic acid cyclohexylamide], the Ki on hamster SUR1 was 100 µM. In addition, the negative logarithm of the Ki (pKi) at rat SUR2A (setting [3]) is on record as 4.7.
Take `O=C(NN1CCCC1)c1nc(-c2ccc(Cl)cc2)n(-c2ccc(Cl)cc2Cl)n1` [5-(4-Chloro-phenyl)-1-(2,4-dichloro-phenyl)-1H-[1,2,4]triazole-3-carboxylic acid pyrrolidin-1-ylamide]: on hamster SUR1, the Ki was 100 µM. Further, on rat SUR2A, the negative logarithm of the Ki (pKi) was 4.4.
As for `O=C(NN1CCCCC1)c1nc(-c2ccc(Cl)cc2Cl)c(-c2ccc(Cl)cc2)s1` [5-(4-Chloro-phenyl)-4-(2,4-dichloro-phenyl)-thiazole-2-carboxylic acid piperidin-1-ylamide], the Ki on hamster SUR1 is 2 µM. The molecule also yielded a pKi at rat SUR2A of 5.5.
As to `O=C(NN1CCCCC1)C1=NN(c2ccc(Cl)cc2)C(c2ccccc2)C1` (stereo not shown) [1-(4-Chloro-phenyl)-5-phenyl-4,5-dihydro-1H-pyrazole-3-carboxylic acid piperidin-1-ylamide], at hamster SUR1, the Ki is 100 µM. Besides, the pKi on rat SUR2A was 5.1.
As to `CCc1c(C(=O)NN2CCCCC2)nc(-c2ccccc2Cl)n1-c1ccc(Cl)cn1` [2-(2-Chloro-phenyl)-1-(5-chloro-pyridin-2-yl)-5-ethyl-1H-imidazole-4-carboxylic acid piperidin-1-ylamide], the Ki on hamster SUR1 was 100 µM. The pKi on rat SUR2A was 4.8.
With `N#CCCNC(=NS(=O)(=O)c1ccc(Cl)cc1)N1CC(c2ccccc2)C(c2ccc(Cl)cc2)=N1` (stereo not shown) [4-Chloro-N-[[3-(4-chloro-phenyl)-4-phenyl-4,5-dihydro-pyrazol-1-yl]-(2-cyano-ethylamino)-methylene]-benzene sulfonamide], the Ki at hamster SUR1 was 0.2 µM. This molecule also registered a pKi on rat SUR2A of 5.9.
In the case of `CCCCCc1nc(C(=O)NC23CC4CC(CC(C4)C2)C3)sc1-c1ccccc1` [N-Adamantyl-4-pentyl-5-phenyl-thiazole-2-carboxamide], the Ki at hamster SUR1 is 100 µM. The molecule further showed a negative-log Ki (pKi) on rat SUR2A (setting [3]) of 4.0.
The corresponding values for `CCCCCc1nc(-c2ccc(Cl)cc2Cl)n(-c2ccc(Cl)cc2)c1C` [1-(4-Chloro-phenyl)-2-(2,4-dichloro-phenyl)-5-methyl-4-pentyl-1H-imidazole] are 1.58 µM and 5.3.
In the case of `Cn1c(C(=O)NC2CCCCC2)nc(-c2ccc(Cl)cc2Cl)c1-c1ccc(Cl)cc1`, on hamster SUR1, the Ki is 100 µM. The pKi on rat SUR2A (setting [3]) was 4.9.
For `N#Cc1cc(-c2ccc(Br)cc2)n(-c2ccc(Cl)cc2Cl)n1` [5-(4-Bromo-phenyl)-1-(2,4-dichloro-phenyl)-1H-pyrazole-3-carbonitrile], the Ki at hamster SUR1 is 100 µM. The same molecule gave a pKi at rat SUR2A of 5.4.

The values are drawn from patent US20070254863A1 (priority 2006, published 2007).
